Among the test systems are SNB-19 CNS; SK-MEL-5 melanoma; CAKI-1 renal; SF-268 CNS; RPMI-8226 leukemia; SK-MEL-28 melanoma; MOLT-4 leukemia; SW-620 colon; CCRF-CEM leukemia; A549 NSCLC.
Holding throughout (experiment): inhibition of tumour cell growth, NCI panel, 48 h

Molecules are shown by their SMILES. Where “and” joins values, the source holds several entries; their conditions need not be identical. Equal entries are not always repeated.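 Exposure lasted 48 hours, with cells grown in 96-well plates and compounds tested at five concentrations. At the GI50, growth is halved. The concentration for full growth arrest is given as TGI.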

As for `O=C(Nc1cccc(NS(=O)(=O)c2ccc(F)cc2)c1)c1ccc(-c2ccccc2)cc1`, the GI50 with SNB-19 CNS was 3.4 µM; with SK-MEL-5 melanoma, 1.88 µM; with CAKI-1 renal it was 3.74 µM; with SF-268 CNS, 3.22 µM; in the assay on RPMI-8226 leukemia, 2.31 µM; in the assay on SK-MEL-28 melanoma, 3.54 µM. Besides, the GI50 was 3.05 µM in the assay with MOLT-4 leukemia, 4.04 µM in the assay on SW-620 colon, 3.46 µM with CCRF-CEM leukemia and 3.34 µM in the assay on A549 NSCLC. Moreover, the TGI was > 100 µM with SNB-19 CNS; 3.74 µM in the assay with SK-MEL-5 melanoma; > 100 µM in the assay on CAKI-1 renal; 66.6 µM in the assay on SF-268 CNS; 11.4 µM in the assay with RPMI-8226 leukemia; 16.9 µM with SK-MEL-28 melanoma. The TGI in the assay on MOLT-4 leukemia was 14.5 µM; in the assay on SW-620 colon, 35.4 µM; in the assay with CCRF-CEM leukemia it was > 100 µM; in the assay with A549 NSCLC it was > 100 µM.

`Cc1ccc2c(/C=C/C(=O)c3cc(CN4CCOCC4)c(O)c4nc(C)ccc34)cc(CN3CCOCC3)c(O)c2n1`: the GI50 with SNB-19 CNS is 0.603 µM; with SK-MEL-5 melanoma, 0.581 µM; with CAKI-1 renal, 0.297 µM; in the assay on SF-268 CNS, 0.81 µM; in the assay on RPMI-8226 leukemia, 0.489 µM; in the assay with SK-MEL-28 melanoma it was 1.08 µM. The GI50 was 0.386 µM in the assay on MOLT-4 leukemia, 0.485 µM in the assay on SW-620 colon, 0.322 µM in the assay with CCRF-CEM leukemia and 0.38 µM in the assay with A549 NSCLC. The TGI worked out at 17.6 µM with SNB-19 CNS; 2.32 µM in the assay on SK-MEL-5 melanoma; 1.53 µM with CAKI-1 renal; 8.66 µM with SF-268 CNS; 3.86 µM in the assay with RPMI-8226 leukemia; 12 µM with SK-MEL-28 melanoma. In addition, the TGI with MOLT-4 leukemia came out at 2.66 µM; with SW-620 colon it was 2.4 µM; in the assay on CCRF-CEM leukemia it was 1.12 µM; in the assay with A549 NSCLC, 15.1 µM.

As to `N.N.NCCCCN.O=C([O-])CC(=O)[O-].O=C([O-])CC(=O)[O-].[Pt+4].[Pt+4]`, the GI50 was > 100 µM in the assay with SNB-19 CNS; > 100 µM in the assay on SK-MEL-5 melanoma; 79 µM in the assay on CAKI-1 renal; > 100 µM with SF-268 CNS; > 100 µM in the assay on RPMI-8226 leukemia; > 100 µM in the assay with SK-MEL-28 melanoma. Further, the GI50 is 52.8 µM with MOLT-4 leukemia, > 100 µM in the assay with SW-620 colon, 35.6 µM with CCRF-CEM leukemia and > 100 µM in the assay on A549 NSCLC. For the same molecule, the TGI in the assay on SNB-19 CNS, with SK-MEL-5 melanoma, in the assay with CAKI-1 renal, in the assay with SF-268 CNS, in the assay with RPMI-8226 leukemia and with SK-MEL-28 melanoma was > 100 µM throughout. The TGI in the assay with MOLT-4 leukemia, in the assay on SW-620 colon, with CCRF-CEM leukemia and with A549 NSCLC was > 100 µM throughout.

`Cc1cc(S(=O)(=O)Nc2nnc(-c3ccco3)c(-c3ccco3)n2)c(SCc2ccccc2)cc1Cl`: the GI50 was 21.7 µM in the assay with SNB-19 CNS; 17.5 µM in the assay on SK-MEL-5 melanoma; 28.5 µM with CAKI-1 renal; 20.1 µM with SF-268 CNS; 18.4 µM in the assay with RPMI-8226 leukemia; 20.7 µM in the assay on SK-MEL-28 melanoma. The GI50 is 17.9 µM in the assay with MOLT-4 leukemia, 23 µM with SW-620 colon, 23.2 µM in the assay with CCRF-CEM leukemia and 34.7 µM with A549 NSCLC. Besides, the TGI in the assay on SNB-19 CNS amounted to 43.8 µM; in the assay on SK-MEL-5 melanoma, 32.5 µM; in the assay with CAKI-1 renal, 55.8 µM; in the assay on SF-268 CNS, 41.2 µM; with RPMI-8226 leukemia it was 61.4 µM; with SK-MEL-28 melanoma, 40.5 µM. Further, the TGI in the assay with MOLT-4 leukemia was 53 µM; in the assay on SW-620 colon, 47.2 µM; in the assay on CCRF-CEM leukemia it was 66.1 µM; in the assay with A549 NSCLC it was > 100 µM.

On to `CC1/C=C/C=C/CC/C=C/C=C/C=C/C=C/C(OC2OC(C)C(O)C(N)C2O)CC2OC(CC(O)C(O)CCC(O)CC(O)CC(O)CC(=O)OC(C)C(C)C1O)CC(O)C2C(=O)O` (stereo not drawn), for which the GI50 with SNB-19 CNS is 94.5 µg/mL; in the assay on SK-MEL-5 melanoma it was 47.3 µg/mL; in the assay with CAKI-1 renal, 23.5 µg/mL; with SF-268 CNS, 33.9 µg/mL; in the assay on RPMI-8226 leukemia, 150 µg/mL; with SK-MEL-28 melanoma, 25.7 µg/mL. Besides, the results for the GI50 in the assay on SW-620 colon and in the assay with A549 NSCLC were 25.4 µg/mL and 24.5 µg/mL, respectively. Besides, the TGI with SNB-19 CNS was 34 µM and 150 µg/mL; with SK-MEL-5 melanoma, 58.9 µM and 150 µg/mL; with CAKI-1 renal, 31.8 µM and 44.5 µg/mL; with SF-268 CNS it was 56.9 µM and 70.7 µg/mL; in the assay on RPMI-8226 leukemia it was 45.2 µM and 150 µg/mL; with SK-MEL-28 melanoma it was 37 µM and 46.3 µg/mL. Also, the TGI in the assay with MOLT-4 leukemia was 38.2 µM; in the assay with SW-620 colon it was 42.2 µM and 46 µg/mL; in the assay with CCRF-CEM leukemia, 59.4 µM; with A549 NSCLC, 33 µM and 46.3 µg/mL.

On to `CC1(c2ccccc2)CC12C(=O)NC(=O)NC2=O` (stereo not drawn), for which the TGI in the assay with SNB-19 CNS, in the assay with SK-MEL-5 melanoma, in the assay on CAKI-1 renal, with SF-268 CNS, in the assay on RPMI-8226 leukemia and in the assay with SK-MEL-28 melanoma was > 100 µM throughout. Further, the TGI in the assay with MOLT-4 leukemia, in the assay with SW-620 colon, in the assay with CCRF-CEM leukemia and in the assay with A549 NSCLC was > 100 µM throughout.

Take `O=c1oc2ccccc2cc1-c1ccc([N+](=O)[O-])cc1`: the TGI in the assay on SNB-19 CNS is > 75.6 µM; in the assay with SK-MEL-5 melanoma it was > 100 µM; in the assay with CAKI-1 renal, > 100 µM; in the assay on SF-268 CNS it was > 100 µM; in the assay with RPMI-8226 leukemia it was > 100 µM; with SK-MEL-28 melanoma it was > 100 µM. The TGI with MOLT-4 leukemia, with SW-620 colon, in the assay with CCRF-CEM leukemia and with A549 NSCLC was > 100 µM throughout.

Consider `C=C1C(=O)OC2C1C(OC(=O)/C(C)=C/C)CC(O)(CCl)C1C(OC(C)=O)C=C(C)C21O` (stereo not drawn), for which the TGI with SNB-19 CNS is > 58.9 µM; with SK-MEL-5 melanoma, 34.4 µM; in the assay with CAKI-1 renal, 17.7 µM; in the assay on SF-268 CNS it was 32.4 µM; in the assay with RPMI-8226 leukemia, 31.3 µM; in the assay with SK-MEL-28 melanoma, 27.9 µM. The TGI with MOLT-4 leukemia was 21.1 µM; in the assay on SW-620 colon it was 14 µM; in the assay on CCRF-CEM leukemia, 17.6 µM; with A549 NSCLC, > 67.3 µM.

In the case of `CCCCCCC(O)C/C=C/CCCCCC/C(C(=O)OC)=C(/O)C(=O)OCC` (stereo not drawn), the TGI with SNB-19 CNS, with SK-MEL-5 melanoma, in the assay on CAKI-1 renal, in the assay on SF-268 CNS, in the assay on RPMI-8226 leukemia and in the assay on SK-MEL-28 melanoma was > 100 µM in each case. For the same molecule, the TGI in the assay on MOLT-4 leukemia, in the assay with SW-620 colon, with CCRF-CEM leukemia and with A549 NSCLC was > 100 µM each time.

`COc1c2c(c(OC)c3c(=O)cc(C/C(=N/NC(=O)C[n+]4ccccc4)C(=O)Nc4cc(C)ccc4C)oc13)OCO2`: the TGI in the assay on SNB-19 CNS, in the assay with SK-MEL-5 melanoma, in the assay on CAKI-1 renal, in the assay on SF-268 CNS, with RPMI-8226 leukemia and in the assay on SK-MEL-28 melanoma was > 100 µM in each case. The TGI with MOLT-4 leukemia, with SW-620 colon, with CCRF-CEM leukemia and in the assay on A549 NSCLC was > 100 µM throughout.

Regarding `COC(=O)C1Cc2c(n(C)c3ccccc23)C(c2ccccc2)N1` (stereo not drawn), the TGI in the assay on SNB-19 CNS was > 100 µM; in the assay on SK-MEL-5 melanoma it was 93 µM; in the assay with CAKI-1 renal, > 100 µM; in the assay with SF-268 CNS, > 100 µM; in the assay with RPMI-8226 leukemia, > 100 µM; in the assay with SK-MEL-28 melanoma it was > 100 µM. In addition, the TGI in the assay with MOLT-4 leukemia, in the assay on SW-620 colon, with CCRF-CEM leukemia and in the assay on A549 NSCLC was > 100 µM in each case.
